From publication PMC6983054, “Toxicity and Antitumor Activity of a Thiophene–Acridine Hybrid” (Molecules, 2019)
Read-outs that look alike come from different tables or passages of the source.

Tests used:
[1] = system: nitrite (nitric oxide); test: Nitrite levels in ascitic fluid, Ehrlich ascites carcinoma model (Griess); type: in vivo, mice (Mus musculus); conditions: peritoneal fluid, control 36.09 ± 0.72 µM
Procedure: The nitrite concentration in the ascitic fluid was measured using Griess reagent. For this, the peritoneal fluid of control and treated animals (12.5 mg/kg ACS03 and 25 mg/kg 5-FU) was used. The optical density was measured using a microplate spectrophotometer reader (Microplate reader BioTek Instruments, Sinergy HT, Winooski, VT, USA) at λ = 560 nm. Concentrations of nitrite were calculated from a standard curve previously established with known molar concentrations of sodium nitrite. The tests were done in quadruplicate and the values expressed in µM [51].

[2] = system: HCT-116 cells (human colon carcinoma cell line); test: MTT cytotoxicity assay, HCT-116; type: cell-based
Source text: Colorectal carcinoma cells (HCT-116), chronic myelogenous leukemia (K562), and acute promyelocytic leukemia (HL-60) were generously provided by Dr. Manoel de Moraes (Federal University of Ceará, Fortaleza, Brazil) and cultured in Roswell Park Memorial Institute 1640 (RPMI 1640; Sigma Aldrich, St. Louis, MO, USA) medium supplemented with 10% fetal bovine serum (GIBCO, Grand Island, NY, USA) and 1% penicillin–streptomycin (Sigma Aldrich, St. Louis, MO, USA). Human keratinocyte cells (HaCaT; provided by Dr. Jaciana Aguiar from Federal University of Pernambuco, Recife, Pernambuco, Brazil), cervical cancer cells (HeLa; purchased from the cell bank of Rio de Janeiro, Rio de Janeiro, Brazil), and breast cancer cells (MCF-7; provided by Dr. João Ernesto de Carvalho from University of Campinas, Campinas, São Paulo, Brazil) were grown and maintained in Dulbecco’s Modified Eagle’s Medium (DMEM; Sigma Aldrich, St. Louis, MO, USA) supplemented with 10% fetal bovine serum (GIBCO, Grand Island, NY, USA) and 1% penicillin–streptomycin (Sigma Aldrich, St. Louis, MO, USA). All cell types were maintained in 5% CO2 at 37 °C with humidity.
MTT (3-(4,5-dimethylthiazol-2-yl)-2,5-diphenyltetrazolium bromide) reduction assay was used to evaluate the cytotoxicity of ACS03 and its precursors (2-amino-5,6,7,8-tetrahydro-4H-cyclohepta[b]thiophene-3-carbonitrile and 6,9-dichloro-2-methoxyacridine) against tumor and non-tumor cell lines and PBMC. For the MTT assay, cell lines (3 × 10^5 cells/mL) and PBMC (1 × 10^6 cells/mL) were seeded on 96-well plates and cultured for 24 h. ACS03 (3.125–200 µM) was added to the cell cultures and incubated for 72 h. After incubation, 110 µL of the supernatant was removed and 10 μL of the MTT reagent (Sigma Aldrich, St. Louis, MO, USA) was added to each well, and the plates were then incubated at 37 °C. Following 3 h incubation, 100 μL of sodium dodecyl sulfate (SDS) was added to dissolve the formazan crystals produced and left overnight to incubate. The amount of formazan is proportional to the number of viable cells present. The optical density was measured using a microplate spectrophotometer reader (Microplate reader BioTek Instruments, Sinergy HT, Winooski, VT, USA) at λ = 570 nm and used to calculate the IC50 (half maximal inhibitory concentration).

[3] = system: HeLa (human cervical cancer cell line); test: MTT cytotoxicity assay, HeLa; type: cell-based; conditions: 72 h
Source text: (§1) Colorectal carcinoma cells (HCT-116), chronic myelogenous leukemia (K562), and acute promyelocytic leukemia (HL-60) were generously provided by Dr. Manoel de Moraes (Federal University of Ceará, Fortaleza, Brazil) and cultured in Roswell Park Memorial Institute 1640 (RPMI 1640; Sigma Aldrich, St. Louis, MO, USA) medium supplemented with 10% fetal bovine serum (GIBCO, Grand Island, NY, USA) and 1% penicillin–streptomycin (Sigma Aldrich, St. Louis, MO, USA). […]
(§2) MTT (3-(4,5-dimethylthiazol-2-yl)-2,5-diphenyltetrazolium bromide) reduction assay was used to evaluate the cytotoxicity of ACS03 and its precursors (2-amino-5,6,7,8-tetrahydro-4H-cyclohepta[b]thiophene-3-carbonitrile and 6,9-dichloro-2-methoxyacridine) against tumor and non-tumor cell lines and PBMC. […] The optical density was measured using a microplate spectrophotometer reader (Microplate reader BioTek Instruments, Sinergy HT, Winooski, VT, USA) at λ = 570 nm and used to calculate the IC50 (half maximal inhibitory concentration).

[4] = system: MCF-7 (breast cancer cell line); test: MTT cytotoxicity assay, MCF-7; type: cell-based; conditions: Homo sapiens, MCF7; MCF-7, MTT, 72 h
Source text: as §1, §2

[5] = system: K562 (chronic myeloid leukemic cell line); test: MTT cytotoxicity assay, K562; type: cell-based; conditions: Homo sapiens, 72 h
Source text: as §1, §2

[6] = system: HL-60 (human promyelocytic leukemia cell line); test: MTT cytotoxicity assay, HL-60; type: cell-based; conditions: HL-60, MTT, 72 h
Source text: as §1, §2

[7] = system: HaCat (Human immortalized keratinocytes cell line); test: MTT cytotoxicity assay, HaCat non-tumor cells; type: cell-based; conditions: 72 h
Source text: as §1, §2

[8] = system: peripheral blood mononuclear cells (PBMC); test: MTT cytotoxicity assay, PBMC; type: cell-based; conditions: Homo sapiens, 72 h
Procedure: Heparinized blood was collected from healthy donors, and the PBMC were isolated by a standard method of density-gradient centrifugation using Ficoll-Histopaque (Sigma Aldrich, St. Louis, MO, USA). PBMC were cultivated in RPMI-1640 medium supplemented with 10% fetal bovine serum, 1% penicillin–streptomycin, and 2% phytohaemagglutinin. Cells were kept at 37 °C with 5% CO2 for 24 h before the start of the experiment. This study was approved by the Ethics Committee of the Human Health Sciences Center Research (CCS), UFPB (CAAE: 22986519.0.0000.5188), Brazil.
as §2, with “PBMC. For the MTT assay, cell lines (3 × 10^5 cells/mL) and PBMC (1 × 10^6 cells/mL) were seeded on 96-well plates and cultured for 24 h. ACS03 (3.125–200 µM) was added to the cell cultures and incubated for 72 h.” for “PBMC.”

[9] = Fish embryo acute toxicity (FET) test; design: species or system zebrafish (Danio rerio); conditions: wild-type, in vivo, zebrafish embryos, 96 h exposure; for EC50 at 96 h: zebrafish
Procedure: The zebrafish (Danio rerio) embryos were provided by the zebrafish facility established at Department of Molecular Biology, Federal University of Paraíba (João Pessoa, Brazil). To obtain embryos, an egg trap was placed overnight in a tank containing male and female specimens (1:1 ratio) of a wild-type strain one day prior to testing. One hour after the beginning of the light cycle (14 h light/10 h dark), eggs were collected and rinsed with E3 medium (5 mM NaCl, 0.17 mM KCl, 0.33 mM CaCl2, and 0.33 mM MgSO4). Viable fertilized eggs were selected using a stereomicroscope (80× magnification), and embryotoxicity analysis was carried out. All experiments were approved by the Committee on Ethical Use of Animals in Research (CEUA) of Federal University of Paraíba, Brazil, certified by number 5900310718/2018.
The fish embryo acute toxicity (FET) test was conducted with ACS03 according to OECD’s guideline no. 236, with slight modifications. Zebrafish embryos of up to 3 hpf (hours post fertilization) of age were initially exposed to 250–15.62 µM. For each concentration tested, we prepared a 96-well plate containing 20 fertilized eggs (1 embryo per well) exposed to the test sample and 4 embryos exposed only to E3 medium (internal controls). The exposure was performed for 96 h, and the embryos were analyzed every 24 h for the apical endpoints: egg coagulation; lack of somite formation; lack of detachment of the tail-bud from the yolk sac; and lack of heartbeat. In the presence of any of these endpoints, the embryo/larva was considered dead. The number of deaths was used to calculate the LC50 (median lethal concentration). Sublethal effects were also recorded in order to obtain the EC50 (median effect concentration), them being spinal deformation, reduction in larval length, and pericardial edema. The exposures were under static conditions (without renovation of test sample or E3 medium). Observations were performed in a stereomicroscope (80× magnification) and photographed (Zeiss). After 96 h, surviving larvae were euthanized with eugenol and properly discarded.
The results are expressed as the mean ± SEM. Statistical analysis of data was performed using analysis of variance (ANOVA), followed by Tukey’s test (p < 0.05). For zebrafish embryo cytotoxicity, the median lethal concentration (LC50) values and the median effect concentration (EC50) values were calculated by probit regression analysis.

[10] = system: LDH (Lactate dehydrogenase); test: LDH activity in zebrafish larvae; type: in vivo; conditions: 96 h, control 316.6 ± 1.28
Procedure: (§3) The FET test was repeated for ACS03 under the same conditions described above, but this time the embryos were independently exposed to three concentrations (10, 20, and 40 µM). At the end of the exposure period (96 h), the larvae were quickly frozen in a ratio of 1 larva per 100 µL of 0.1 M sodium phosphate buffer, pH 7.4.
(§4) Larval groups from each of the three tested concentrations and a negative control group (exposed to E3 medium only) were macerated using 1:9 (w/v) cold 0.9% NaCl solution. The homogenates were centrifuged at 10,000× g for 10 min at 4 °C, and the resulting supernatants were used for the measurement of soluble protein content and enzyme activity. The activities of acetylcholinesterase (AChE), glutathione S-transferase (GST), and lactate dehydrogenase (LDH) were measured according to Domingues et al. (2010). Tests were done in quadruplicate for each enzyme.

[11] = system: GST (Glutathione S-transferase); test: GST activity in zebrafish larvae; type: in vivo, zebrafish (Danio rerio); conditions: 96 h, control 31.8 ± 0.05
Procedure: as §3, §4

[12] = system: AChE (Acetylcholinesterase); test: AChE activity in zebrafish larvae; type: in vivo, zebrafish (Danio rerio); conditions: 96 h, control 66.35 ± 0.04
Procedure: as §3, §4

[13] = Acute preclinical toxicity in mice (OECD 423); type: in vivo, mice (Mus musculus); conditions: female, Swiss albino, mouse, in vivo, ip, estimated, OECD 423, read-out: LD50 (lethal dose 50%)
Procedure: (§5) Female Swiss albino mice (Mus musculus) weighing between 28 and 32 g, with an approximate age of 60 days and obtained from the Dr. Thomas George Bioterium (Research Institute in Drugs and Medicines/Federal University of Paraíba, Paraíba, Brazil) were used. The animals were grouped in polyethylene cages containing six animals, with free access to food (Purina® feed pellets, St. Louis, MO, USA) and water. The animals were kept under controlled conditions (21 ± 1 °C, 12 h/12 h off light/dark cycle). All experiments were approved by the Committee on Ethical Use of Animals in Research (CEUA) of Federal University of Paraíba, Brazil, certified by number 093/2017.
(§6) The acute toxicity test in mice was performed according to the Guideline for Testing of Chemicals no. 423 of the Organization for Economic Co-operation and Development (OECD). Mice were divided into different groups (n = 3 females/group). The control group received vehicle alone (12% (v/v) Tween 80 in saline), and ACS03 was tested in single doses of 300 or 2000 mg/kg, intraperitoneally (i.p.). The dose responsible for the death of 50% of the experimental animals (LD50) was estimated.

[14] = system: Swiss albino mice; test: Acute preclinical toxicity in mice (OECD 423); type: in vivo, mice (Mus musculus)
Procedure: as §5, §6

[15] = system: Ehrlich ascites carcinoma; test: In vivo antitumor activity, Ehrlich ascites carcinoma model; design: species or system mice (Mus musculus); conditions: 12.5 mg/kg i.p., seven days
Source text: Ehrlich ascites carcinoma was generously provided by Pharmacology and Toxicology Division, CPQBA, UNICAMP (Paulínia, São Paulo, Brazil). The cells were maintained in the peritoneal cavities of Swiss mice in the Dr. Thomas George Bioterium (Research Institute in Drugs and Medicines/Federal University of Paraíba, João Pessoa, Brazil).
as §5
Mice were inoculated with 4 × 10^6 cells/mL of Ehrlich tumor cells (0.5 mL/animal), intraperitoneally (i.p.). After 24 h, mice were divided into […] (n = 6/group) and treated with vehicle alone (12% (v/v) Tween 80 in saline), 5-FU (standard drug, 25 mg/kg), or ACS03 (3.125, 6.25, 12.5, or 25 mg/kg) for seven consecutive days (i.p.). […]

[16] = system: Leishmania; design: method as in PMID 29415325; conditions: cited from earlier work
[17] = system: erythrocytes; design: method as in PMID 29415325; conditions: cited from earlier work
[18] = HCT-116, MTT, 72 h, read-out: IC50

O=c1[nH]cc(F)c(=O)[nH]1 [5-FU, 5-fluorouracil, reference compound]
nitrite concentration ([1]; 25 mg/kg): 16.3 ± 2.91 µM

COc1cccc2c1C(=O)c1c(O)c3c(c(O)c1C2=O)C[C@@](O)(C(=O)CO)C[C@@H]3O[C@H]1C[C@H](N)[C@H](O)[C@H](C)O1 [Doxorubicin]
IC50 [2, 18]: 2.59 µM

COc1ccc2nc3cc(Cl)ccc3c(Cl)c2c1 [6,9-diclhoro-2-methoxi-acridine, 6,9-dichloro-2-methoxyacridine]
IC50 [2, 18]: 202.3 ± 1.19 µM

COc1ccc2nc3cc(Cl)ccc3c(Nc3sc4c(c3C#N)CCCCC4)c2c1 [ACS03, 2-((6-Chloro-2-methoxyacridin-9-yl)amino)-5,6,7,8-tetrahydro-4H-cyclohepta[b]-thiophene-3-carbonitrile]
IC50 ([2]; HCT-116, 72 h): 23.1 ± 1.03 µM | IC50 [3]: > 50 µM | IC50 [4]: > 50 µM | IC50 [5]: > 50 µM | IC50 [6]: > 50 µM | IC50 [7]: 62.2 ± 1.15 µM | IC50 [8]: 115 ± 5.82 µM | LC50 at 96 h ([9]; read-out: LC50 (median lethal concentration)): > 1000 µM | EC50 at 96 h ([9]; read-out: EC50 pericardial edema): > 1000 µM | EC50 at 96 h ([9]; read-out: EC50 reduction in larval length): 126 µM | EC50 at 96 h ([9]; read-out: EC50 spinal deformation): 172 µM | LDH activity ([10]; 20 µM): 378.44 ± 0.58 | LDH activity ([10]; 40 µM): 426.74 ± 0.79 | GST activity ([11]; 10 µM): 57.96 ± 0.23 | GST activity ([11]; 20 µM): 75.83 ± 0.13 | GST activity ([11]; 40 µM): 86.14 ± 0.21 | AChE activity ([12]; 10 µM): 85.67 ± 0.11 | AChE activity ([12]; 20 µM): 94.59 ± 0.20 | AChE activity ([12]; 40 µM): 94.54 ± 0.10 | LD50 [13]: > 5000 mg/kg | death in acute toxicity assay ([14]; single dose 300 mg/kg i.p., test repeated): no death | death in acute toxicity assay ([14]; single dose 2000 mg/kg i.p., carried out twice): did not induce death | cell viability ([15]; trypan blue, control 115.5 ± 23.97): 4.12 ± 1.28 × 10^6 cells/mL | tumor volume ([15]; control 6.93 ± 0.79 mL): 0.0 mL | nitrite concentration ([1]; 12.5 mg/kg): 188.5 ± 7.98 µM | antileishmanial activity [16]: showed antileishmanial activity | cytotoxicity against erythrocytes [17]: no cytotoxicity

N#Cc1c(N)sc2c1CCCCC2 [2-amino-thiophene, 2-amino-5,6,7,8-tetrahydro-4H-cyclohepta[b]thiophene-3-carbonitrile]
IC50 [2, 18]: > 1000 µM
